Reference: publication PMC12128024, “Copper(II) Cyclopeptides with High ROS-Mediated Cytotoxicity” (Bioconjugate Chemistry, 2025)
Read-outs that look alike come from different tables or passages of the source. *1 amine or outer side, *2 acyl side, *3 side chain or, on linkers, in order; H or OH if unused. Where a SMILES comes first, the peptide text is derived from it. [ ]: non-standard residue; d: D form. X1 = O=C(c1ccc(-c2ccc(N[*:1])cn2)nc1)[*:2]; βAla = NCCC(=O)O

What was measured:
NCI/ADR-RES cells [1] = assay: ICP-MS internalization study (intracellular Cu accumulation); format: cell-based; conditions: 1 µM compound, 48 h, metallopeptides 1 eq. cyclopeptide + 1 eq. Cu(II)
Protocol: To evaluate the ability of the Cu(II) metallopeptide systems to internalize in cancer cells, ICP-MS studies were performed in NCI/ADR-RES cells after 48 h of incubation with cyclopeptides 1 and 2, as well as their corresponding 1/Cu(II) and 2/Cu(II) metallopeptide derivatives formed by mixing each cyclopeptide with 1 equiv Cu(II), and using CuCl2·2H2O both as a Cu(II) source and a control.
7.1. General methods and materials
ICP Measurements were conducted employing an Agilent 7900 ICP-MS system (Agilent Technologies, Tokyo, Japan). The sample introduction system was comprised of an autosampler, a double-pass spray chamber with Peltier system, a glass concentric nebulizer (MicroMist low-flow nebulizer, Glass Expansion, West Melbourne, Australia), and a quartz torch.
Quantification of copper concentrations was achieved using Agilent ICP-MS MassHunter 5.1, (Version D.01.01 Agilent Technologies, Tokyo, Japan). The parameters for the ICP-MS device were as follows: RF Power, 1550 W; Sample Depth, 8; Carrier Gas, 1.1 L/min; Nebulizer Pump […]
Roswell Park Memorial Institute 1640 medium (RPMI), fetal bovine serum (FBS), penicillin, and streptomycin were purchased from Invitrogen Thermo Fisher.
Ovarian tumour NCI/ADR-RES cells, obtained from the European Collection of Authenticated Cell Cultures (ECACC), were cultured at 37 °C in a 5% CO2 atmosphere in RPMI medium containing 10% FBS and supplemented with 50 U/mL penicillin and 50 U/mL streptomycin, in 75 cm2 cell culture flasks. All cell experiments were performed at 37 °C in a 5% CO 2 atmosphere with this modified RPMI, referred as “medium” or “culture medium”.
7.3. […]
The culture medium was then replaced with 3 mL of fresh medium containing 1 µM of the compound [Cu(II) (CuCl₂·2H₂O), cyclopeptide ( 1 or 2), or metallopeptide system [1/Cu(II) or 2/Cu(II); 1 eq. cyclopeptide + 1 eq. […] Lysates were digested at 95 °C overnight, diluted with 1% HNO₃ to a final volume of 5 mL, and analyzed by ICP-MS. The Cu(II) content in the culture medium (3 mL) was also measured using the same technique, yielding a value of 41.46 ng. […]

NCI/ADR-RES cells [2] = assay: Intracellular ROS generation (ROS Assay Stain 1X); format: cell-based; conditions: 100 μM compound with 125 μM H2O2, 1-5 h and 24 h, 1/Cu(II) equimolar
Protocol: Measurement of intracellular ROS levels in NCI/ADR-RES cells treated with Cu(II) ions, cyclopeptide 1, or the 1/Cu(II) metallopeptide system confirmed a time-dependent increase in the level of ROS generation. In short, after 24 h of incubation, cells were stained with ROS Assay Stain 1× and treated with 100 μM Cu(II) (CuCl2·2H2O), cyclopeptide 1, or 1/Cu(II), along with 125 μM H2O2, and fluorescence was recorded (λex = 495/λem = 520 nm) every hour for the first 5 h and again at 24 h. The experiment with the metallopeptide system was conducted by using equimolar amounts of cyclopeptide 1 and Cu(II) to prevent an excess of free copper in the medium. […] The cytotoxicity of the metallopeptide systems appears to be closely linked to their ability to enhance intracellular oxidative stress via increased ROS production, likely driven by Cu(II) accumulation within the cells.
9.2. […]
NCI/ADR-RES cells were seeded in a 96 well plate (Thermo Scientific 165305) at a density of 2,5 x 10^5 cells/ml. […] The fluorescence was measured in a microplate reader every hour for the first 5 hours, and again at 24 hours after the addition of the compounds (λex= 495 nm / λem= 520 nm). […]
Figure S15. […] Fluorescence (λex= 495 nm / λem= 520 nm) was recorded every hour for the first 5 hours, and again at 24 hours after the addition of the compounds to assess intracellular ROS generation. […]

[3] = system: HCT-116 (colon carcinoma); conditions: 48 h
Description: (§1) IC50 is the concentration at which 50% growth inhibition is obtained and E max represents the efficacy of the compound at its maximum concentration, expressed as the maximum % cell inhibition achieved by the compound (see Section S6 and Figure S8 of the Supporting Information).
(§2) General method: cell lines and grown conditions
(§3) Non-small lung carcinoma NCI-H460, human colon carcinoma HCT-116, human glioma SF-268
(§4) and doxorubicin-resistance human mamma carcinoma NCI/ADR-RES cell lines, as well as
(§5) Eagle’s Minimal Essential Medium (EMEM) and RPMI1640 were purchased from the American Tissue Culture Collection (ATCC). Frozen cells were thawed in a 75 cm2 cell culture flask in RPMI
(§6) supplemented with 2 mM L-glutamine and 10% FBS and maintained at 37 °C in a 5% CO2
(§7) The inhibition of cell proliferation induced by the samples [1/Cu(II), 1 eq. cyclopeptide 1/3 eq. of
(§8) Cu(II); 2/Cu(II), 1 eq. cyclopeptide 2/5 eq. of Cu(II)]‚ was carried out by using MTT method for
(§9) HCT-116, NCI/ADR-RES and NCI-H460 cell lines. SF-268 cell growth inhibition induced by the
(§10) samples was assessed using a system based on crystal violet cell staining and subsequent
(§11) acetylation. Cells were seeded in a 96-well microplate (5000 cells/well for HCT-116, 10000
(§12) cells/well for SF-268 and 15000 cells/well for NCI/ADR-RES and NCI-H460 cell lines) in 100 μl
(§13) of growth medium and maintained at 37 °C for 24 h.
(§14) Then growth medium was replaced by fresh medium containing different concentrations of the
(§15) samples to be assayed and maintained at 37 °C in a 5% CO2 atmosphere for 48 h. After this
(§16) time, 10 μL MTT (5 mg/ml in PBS) were added to each well and maintained for 4 h at 37 °C in a
(§17) 5% CO2 atmosphere. Then 100 μL of 10% SDS in 0.01 M HCl were added to each well an
(§18) incubated for 12-14 h under the same experimental conditions. Absorbance due to formation
(§19) was detected in a Tecan infinity M1000 Pro reader using a wavelength of 595 nm. All assays
were performed with triplicate points.
b) Crystal violet cell staining
(§20) The samples dissolved in water were added, maintaining the same proportion of water in each
(§21) well (10%). After 72 h (at 37°C and in an atmosphere of 5% CO 2/95% air), the cells were fixed to
(§22) the plate with 10 μL of 11% glutaraldehyde solution, kept under agitation at room temperature,
(§23) for 15 minutes. Once fixed, the medium was removed and the cells were washed 3-4 times with
(§24) distilled water, followed by staining of the cells with 100 μL of a 0.1% crystal violet solution. This
(§25) solution was prepared by diluting 0.1g of crystal violet in 100 mL of buffer composed of 200 mM
(§26) phosphoric acid, 200 mM formic acid and 200 mM 2-(N-morpholino)-ethane sulphonic acid
(§27) (MES) at pH 6. The plate was kept shaking at room temperature for 15 minutes. The dye was
(§28) removed, washed 3-4 times with distilled water and dried. 100 μL of 10% acetic acid was then
(§29) added and kept under agitation for 15 minutes, at room temperature, so that the staining was
(§30) homogeneous in all wells. Finally, an absorbance reading of the plates was performed at a
(§31) wavelength of 595 nm (Tecan M1000 Infinite Pro). The assay was performed with triplicate points.
(§32) Data were expressed as the growth inhibition percentage calculated in basis on the equation: %
(§33) inhibition= 100 – [(AO × 100) / AT]. Where AT is the measured absorbance in wells containing
(§34) compounds and AO is the absorbance measured in blank wells (cells with medium and vehicle).
(§35) The inhibitory potency of compounds was calculated by constructing concentration-% growth
(§36) inhibition curves, and extrapolating IC50 values (concentration of compound that inhibits cells

SF-268 (human glioma) = conditions: 72 h
Description: as §1, §2, §3, §4, §5, §6, §7, §8, §9, §10, §11, §12, §13, §14, §15, §16, §17, §18, §19
were performed with triplicate points.
b) Crystal violet cell staining
as §20, §21, §22, §23, §24, §25, §26, §27, §28, §29, §30, §31, §32, §33, §34, §35, §36

[4] = system: NCI/ADR-RES (doxorubicin resistant ovarian carcinoma); conditions: 48 h
Description: as §1, §2, §3, §4, §5, §6, §7, §8, §9, §10, §11, §12, §13, §14, §15, §16, §17, §18, §19
were performed with triplicate points.
b) Crystal violet cell staining
as §20, §21, §22, §23, §24, §25, §26, §27, §28, §29, §30, §31, §32, §33, §34, §35, §36

[5] = system: NCI-H460 (lung carcinoma); conditions: 48 h
Description: as §1, §2, §3, §4, §5, §6, §7, §8, §9, §10, §11, §12, §13, §14, §15, §16, §17, §18, §19
were performed with triplicate points.
b) Crystal violet cell staining
as §20, §21, §22, §23, §24, §25, §26, §27, §28, §29, §30, §31, §32, §33, §34, §35, §36

[6] = system: nontransformed lung fibroblast (MRC-5)
Description: as §1, §2, §3, §4, §5, §6, §7, §8, §9, §10, §11, §12, §13, §14, §15, §16, §17, §18, §19
were performed with triplicate points.
b) Crystal violet cell staining
as §20, §21, §22, §23, §24, §25, §26, §27, §28, §29, §30, §31, §32, §33, §34, §35, §36

[7] = Fluorescence titration of cyclopeptides with Cu(II) ions (DynaFit fit); format: binding; conditions: 2 μM cyclopeptide, 1 mM phosphate buffer, 10 mM NaCl, pH 6.5; 1: 1:2 model (cyclopeptide:metal); 2: simplified model with 1:1 and 2:1 species; read-out: global dissociation constant K D
Description: While the 2,2′-bipyridine ligand is known to be weakly emissive and for all practical purposes considered nonfluorescent, , the 5′-amido-[2,2′-bipyridine]-5-carboxamide unit in the βAlaBpy building block is highly emissive, displaying an intense emission band at c.a. 410 nm with a quantum yield of 0.37. Furthermore, the fluorescence of the βAlaBpy units is quenched upon coordination to a wide range of divalent transition metal ions. We exploited this property to monitor the coordinative properties of cyclopeptides 1 and 2 in the presence of labile Cu(II) ions in aqueous media. Thus, we measured the emission spectra of 2 μM solutions of the cyclopeptides 1 and 2 in 1 mM phosphate buffer and 10 mM NaCl, pH 6.5, upon excitation at 308 nm in the presence of increasing concentrations of Cu(II) ions. […] Therefore, the affinity of the first part of the titrations cannot be determined with this experiment as it is too strong. […]
5.2. Fluorescence titration experiments
Luminescence experiments were made with a Varian Cary Eclipse Fluorescence spectrophotometer coupled to a Cary Single Cell Peltier accessory (Agilent Technologies) temperature controller. […]
emission spectrum was recorded (λex= 308 nm; λem= 410 nm) after each addition. […]

[8] = HCT-116, MTT, 1/Cu(II) 3 equiv Cu(II), 2/Cu(II) 5 equiv Cu(II)
[9] = HCT-116, MTT, at maximum concentration
[10] = SF-268, crystal violet, 1/Cu(II) 3 equiv Cu(II), 2/Cu(II) 5 equiv Cu(II)
[11] = SF-268, crystal violet, at maximum concentration
[12] = NCI/ADR-RES, MTT, 1/Cu(II) 3 equiv Cu(II), 2/Cu(II) 5 equiv Cu(II)
[13] = NCI/ADR-RES, MTT, at maximum concentration
[14] = NCI-H460, MTT, 1/Cu(II) 3 equiv Cu(II), 2/Cu(II) 5 equiv Cu(II)
[15] = NCI-H460, MTT, at maximum concentration
[16] = MRC-5, 48 h, 1/Cu(II) 3 equiv Cu(II), 2/Cu(II) 5 equiv Cu(II)
[17] = MRC-5, 48 h, at maximum concentration

Row | SMILES | intracellular Cu(II) accumulation (ICP-MS) (NCI/ADR-RES cells [1]) | IC50 [3, 8] | E max (maximum % cell inhibition) [3, 9] | IC50 (SF-268 (human glioma); [10]) | E max (maximum % cell inhibition) (SF-268 (human glioma); [11]) | IC50 [4, 12] | E max (maximum % cell inhibition) [4, 13] | IC50 [5, 14] | E max (maximum % cell inhibition) [5, 15] | IC50 [6, 16] | E max (maximum % cell inhibition) [6, 17] | also measured
1 | O.O.[Cl][Cu][Cl] [CuCl2·2H2O, reference compound] | modest increase in intracellular copper | > 100 µM | 94 ± 1% | > 100 µM | 87 ± 1% | 99 ± 1 µM | 91 ± 1% | > 100 µM | 97 ± 1% | 79 ± 3 µM | 91 ± 1% | intracellular ROS levels (fluorescence) (NCI/ADR-RES cells [2]): moderate effect
2 | N=C(N)NCCC[C@@H]1NC(=O)c2ccc(nc2)-c2ccc(cn2)NC(=O)CCNC(=O)[C@H](CCCNC(=N)N)NC(=O)[C@H](CCCNC(=N)N)NC(=O)[C@H](CCCNC(=N)N)NC(=O)c2ccc(nc2)-c2ccc(cn2)NC(=O)CCNC(=O)[C@H](CCCNC(=N)N)NC(=O)[C@H](CCCNC(=N)N)NC(=O)[C@H](CCCNC(=N)N)NC(=O)c2ccc(nc2)-c2ccc(cn2)NC(=O)CCNC(=O)[C@H](CCCNC(=N)N)NC(=O)[C@H](CCCNC(=N)N)NC1=O [compound 2, cyclo-(βAlaBpy-Arg3)3] (cyclo(RRR[βAla][X1]RRR[βAla][X1]RRR[βAla][X1])) | notably lower than that of the metallopeptide systems | – | – | – | – | – | – | – | – | – | – | Kd [7]: 0.24 ± 0.1 µM; E max (maximum % cell inhibition) [3]: 80 ± 1%; IC50 [3]: > 100 µM; E max (maximum % cell inhibition) (SF-268 (human glioma)): 92 ± 1%; IC50 (SF-268 (human glioma)): 16 ± 1 µM; E max (maximum % cell inhibition) [4]: 86 ± 1%; IC50 [4]: 28 ± 1 µM; E max (maximum % cell inhibition) [5]: 92 ± 1%; IC50 [5]: 21 ± 1 µM; E max (maximum % cell inhibition) ([6]; 48 h): 92 ± 1%; IC50 ([6]; 48 h): 18 ± 1 µM
3 | N.N.[Cl][Pt][Cl] [cisplatin, reference compound] | – | 13 ± 1 µM | 94 ± 1% | 3.89 ± 0.08 µM | 92 ± 1% | 13 ± 1 µM | 86 ± 1% | 5.29 ± 0.46 µM | 62 ± 4% | 5.7 ± 0.22 µM | 92 ± 1% | –
